The test system of assay [1] is social behaviours in the rat Tetradic Encounter test. As to the kind of experiment: Rat Tetradic Encounter test. Particulars: for % of time Agonistic behaviour: sum of defensive and aggressive behaviour.
Assay [2] deals with social behaviours in the Mutual Resident Intruder rat test. As to the kind of experiment: Mutual Resident Intruder rat test. The conditions noted are these: for % of time Agonistic behaviour: sum of defensive and aggressive behaviour.
Assay [3] relates to choice of the large-but-delayed reward (impulsivity). The assay is described as follows: Rat T-maze procedure: large-but-delayed vs small-but-immediate reward. Particulars: juvenile Wistar rats; for % Choice of the large but delayed reward on Control sessions: placebo administered before control (pre-drug and post-drug) sessions of the same group. It counts as in vivo. The method, then:
Subjects. male Wistar AF rats (28-41 days old) (Centre d′Elevage René Janvier, France) were used. […] During the whole study, tap water was provided ad libitum. Food was restricted to 5-10 g/day/animal in order to maintain animals at 65-75% of their free feeding weight
Experimental procedure. The experiments were performed in two identical T-maze apparatus constructed from opaque grey plastic tubing and consisting of a starting runway (30 cm long) and two arms (35 cm long) each leading to a rectangular black plastic goal box (18 cm large, 30 cm wide, 10 cm high). Removable grey plastic guillotine doors could be inserted into the vertical clefts, situated at the entry of the starting runway and at each end of the arms. One of the goal-boxes (left or right, depending on the rats) was constantly provided with a large reward, the other with a small reward. Large and small rewards consisted, respectively, of 5 and 1 pellets (20 mg, Technical & Scientific Equipment GmbH, Germany). The pellets were placed in a translucent food-cup before each trial.
First phase: habituation. Animals were first subjected to two 5-min sessions of habituation. The rat was gently introduced in the starting runway, which then was closed with a guillotine door inserted in the cleft (referred to as c0 in FIG. 1). The animal was allowed to freely explore the apparatus and to eat food rewards placed in the food cups.
Second phase: pretraining. After a door was placed in the cleft c2 near each goal-box, the rat was introduced in the starting runway. When it entered one of the two arms, a door was inserted behind it in the cleft c1 near the choice area and the door placed in cleft c2 was removed. As soon as the animal entered the goal-box, the door was placed again in the cleft c2. The rat was removed from the goal-box as soon as the pellets were eaten (usually within less than 1 min). The animal was then returned to its home cage for an intertrial interval of 2 to 3 min. Each rat was submitted one to five times/day to five trials sessions in this procedure. Training was initiated when the rat selected the arm giving access to the large reward in more than 14 out of 15 trials.
Third phase: training. Rats underwent one to five times/day five trials training sessions during which a delay was introduced before access to the large reward. After a door was placed in the cleft c2 near each goal-box, the rat was introduced in the starting runway. When it entered one of the two arms, a second door was inserted behind it in the cleft c1 near the choice area, so that rat selecting the arm leading to the large reward could be detained in this arm for a period (referred to as the waiting delay) before having access to the reinforcement. Otherwise, if the animal selected the arm leading to the small reward, the door placed in the cleft c2 was immediately opened, allowing the animal to enter the goal-box. At the beginning of training, the waiting delay was 30 sec. Then, if the percentage of choices of the large and delayed reward remained high (i.e. ≧40%) for more than six sessions, it was increased to 45 sec, and if necessary to 60 sec, 90 sec and finally 120 sec. Drug testing began when the animal selected the large and delayed reward in two trials out of five (or less) in two consecutive sessions and in one trial out of five (or less) in the following session.
Drug testing was conducted over six consecutive test-sessions of five trials each, during which the access to the large reward was preceded by the waiting delay. Test sessions were: Two control pre-drug sessions: control pre-drug session 1 and control pre-drug session 2; Two drug sessions: drug session 1 and drug session 2; Two control post-drug sessions: control post-drug session 1 and control post-drug session 2.

The mark [4] stands for this setting: 1 mg/kg s.c. 30 min before test.
Where [5] appears, read: 5 mg/kg s.c. 30 min before test.

Marks after values point to notes of the source that are not given here.

As for `C[C@H](N)Cc1ccccc1` [Amphetamine, D-amphetamine, reference compound], in assay [1] (0.5 mg/kg (positive control)), the “% of time Aggressive behaviour” value is 0.1*** % of time, the “% of time Defensive behaviour” value is given as 1.2*** % of time, the “% of time Friendly behaviour” value was 17.3* % of time and the “% of time Non-social behaviour” value is 81.4*** % of time. For the same compound, the “% of time Agonistic behaviour” value in assay [1] (0.5 mg/kg (positive control)) is on record as 1.4*** % of time. In addition, in assay [2] (0.5 mg/kg (positive control)), the “% of time Aggressive behaviour” value is reported as 3.9*** % of time, the “% of time Defensive behaviour” value is recorded as 4.0*** % of time, the “% of time Friendly behaviour” value was 5.3 % of time and the “% of time Non-social behaviour” value is recorded as 86.8*** % of time. Moreover, the “% of time Agonistic behaviour” value in assay [2] (0.5 mg/kg (positive control)) was 7.9*** % of time.

Take `CNCC[C@@H](Oc1ccccc1C)c1ccccc1` [Atomoxetine, reference compound]: the “% Choice of the large but delayed reward on Drug sessions” value (“% Choice … on Drug sessions” below) in assay [3] (1 mg/kg i.p. 30 min before the test) is on record as 40.0 ± 2.2 %. In addition, in assay [3], the “% Choice of the large but delayed reward on Control sessions” value (shortened to “% Choice … on Control sessions”) turned out to be 10.7 ± 2.3%.

With `COc1cc(N2CCOCC2)cc(C)c1NC(=O)CC1CCCC1` [Compound 2], in assay [1] (setting [4]), the “% of time Aggressive behaviour” value is listed as 5.3 % of time, the “% of time Defensive behaviour” value was 7.2 % of time, the “% of time Friendly behaviour” value was 18.2* % of time and the “% of time Non-social behaviour” value is given as 69.3 % of time. Further, the “% of time Agonistic behaviour” value in assay [1] (setting [4]) was 12.5 % of time. In assay [1] (setting [5]), the “% of time Aggressive behaviour” value is 0.4** % of time, the “% of time Defensive behaviour” value is 0.8*** % of time, the “% of time Friendly behaviour” value was 26.2 % of time and the “% of time Non-social behaviour” value was 72.7** % of time. In assay [1] (setting [5]), the “% of time Agonistic behaviour” value is listed as 1.2*** % of time. Besides, the “% Choice … on Drug sessions” value in assay [3] (1 mg/kg s.c. 30 min before the test) came out at 33.3 ± 3.3 %. In addition, in assay [3], the “% Choice … on Control sessions” value came out at 11.7 ± 2.5%. For the same compound, in assay [2] (setting [4]), the “% of time Aggressive behaviour” value was 15.5 % of time, the “% of time Defensive behaviour” value is 17.3 % of time, the “% of time Friendly behaviour” value is 4.0 % of time and the “% of time Non-social behaviour” value was 63.1 % of time. For the same compound, the “% of time Agonistic behaviour” value in assay [2] (setting [4]) is on record as 32.8*** % of time. In assay [2] (setting [5]), the “% of time Aggressive behaviour” value was 0.7*** % of time, the “% of time Defensive behaviour” value was 0.2*** % of time, the “% of time Friendly behaviour” value is 2.4 % of time and the “% of time Non-social behaviour” value was 96.6*** % of time. The “% of time Agonistic behaviour” value in assay [2] (setting [5]) is 0.9*** % of time.

With `Cc1cc(N2CCOCC2)nc(C)c1NC(=O)CC(C)(C)C` [Compound 3, N-(2,4-dimethyl-6-morpholin-4-yl-pyridin-3-yl)-3,3-dimethylbutyramide], in assay [1] (setting [4]), the “% of time Aggressive behaviour” value was 5.9 % of time, the “% of time Defensive behaviour” value was 8.5 % of time, the “% of time Friendly behaviour” value is listed as 20.2 % of time and the “% of time Non-social behaviour” value is 65.4 % of time. The “% of time Agonistic behaviour” value in assay [1] (setting [4]) is 14.4 % of time. For the same compound, in assay [1] (setting [5]), the “% of time Aggressive behaviour” value is given as 0.1** % of time, the “% of time Defensive behaviour” value is 0.0*** % of time, the “% of time Friendly behaviour” value is listed as 20.0 % of time and the “% of time Non-social behaviour” value is 79.9*** % of time. Also, the “% of time Agonistic behaviour” value in assay [1] (setting [5]) was 0.1*** % of time. Besides, the “% Choice … on Drug sessions” value in assay [3] (2.5 mg/kg s.c. 30 min before the test) turned out to be 25.0 ± 6.7 %. Further, the “% Choice … on Control sessions” value in assay [3] worked out at 8.3 ± 2.8%. Also, in assay [2] (setting [4]), the “% of time Aggressive behaviour” value is on record as 12.0 % of time, the “% of time Defensive behaviour” value is 12.3 % of time, the “% of time Friendly behaviour” value is 3.4 % of time and the “% of time Non-social behaviour” value is recorded as 72.3 % of time. Besides, the “% of time Agonistic behaviour” value in assay [2] (setting [4]) is reported as 24.3 % of time. In addition, in assay [2] (setting [5]), the “% of time Aggressive behaviour” value is 0.2*** % of time, the “% of time Defensive behaviour” value is reported as 0.2*** % of time, the “% of time Friendly behaviour” value is 2.3 % of time and the “% of time Non-social behaviour” value is 97.4*** % of time. For the same compound, the “% of time Agonistic behaviour” value in assay [2] (setting [5]) is recorded as 0.3*** % of time.

Source of the values: US20100256145A1, “USE OF KCNQ POTASSIUM CHANNEL OPENERS FOR REDUCING SYMPTOMS OF OR TREATING DISORDERS OR CONDITIONS WHEREIN THE DOPAMINERGIC SYSTEM IS DISRUPTED” (H. LUNDBECK A/S, priority 2007, published 2010).
